Data from PMC6522510 (Nature Communications, 2019).
Like-named read-outs stand apart in the source and are kept apart here.

How the values were obtained:
[1] = tested on: ML2; assay: Secondary dose-response HTS, Cell Titer Glo; type: cell-based, human; conditions: ML-2; for EC50: Homo sapiens
[2] = tested on: CHRF288-11; assay: Secondary dose-response HTS, Cell Titer Glo; type: cell-based, human; conditions: for EC50: Homo sapiens
[3] = tested on: M07e; assay: Secondary dose-response HTS, Cell Titer Glo; type: cell-based, human; conditions: for EC50: Homo sapiens, M-07e
[4] = tested on: U937; assay: Secondary dose-response HTS, Cell Titer Glo; type: cell-based, human; conditions: for EC50: Homo sapiens, U-937
[5] = tested on: MOLM-13; assay: Secondary dose-response HTS, Cell Titer Glo; type: cell-based, human; conditions: MOLM-13; for EC50: Homo sapiens
[6] = tested on: CMS; assay: Secondary dose-response HTS, Cell Titer Glo; type: cell-based, human; conditions: for EC50: Homo sapiens, HTS
[7] = tested on: MV4-11; assay: cells; set-up: species or system AML cell lines (8); Secondary HTS, 10-point dose-response in triplicate, Cell Titer Glo viability, four-parameter fit EC50; conditions: Homo sapiens, MV4-11, 72 h, read-out: MV4-11
[8] = tested on: CMK; assay: Secondary dose-response HTS, Cell Titer Glo; type: cell-based, human; conditions: CMK; for EC50: Homo sapiens; for average effective concentration, CMK: secondary high-throughput screen
[9] = tested on: MV4-11; assay: Secondary dose-response HTS, Cell Titer Glo; type: cell-based, human; conditions: secondary high-throughput screen; MV4-11
[10] = secondary high-throughput screen, read-out: average effective concentration, ML-2
[11] = HTS, secondary high-throughput screen, CHRF288-11, read-out: average effective concentration, CHRF288-11
[12] = secondary high-throughput screen, M07e, read-out: average effective concentration, M07e
[13] = secondary high-throughput screen, U937, read-out: average effective concentration, U937
[14] = secondary high-throughput screen, read-out: average effective concentration, MOLM-13
[15] = secondary high-throughput screen, CMS, read-out: average effective concentration, CMS
[16] = read-out: average effective concentration, CMK
[17] = read-out: average effective concentration, CMS
[18] = secondary high-throughput screen
[19] = secondary high-throughput screen, CHRF288-11
[20] = secondary high-throughput screen, M07e
[21] = secondary high-throughput screen, U937
[22] = secondary high-throughput screen, CMS

Compound | EC50 [1, 10] | EC50 [2, 11] | EC50 [3, 12] | EC50 [4, 13] | EC50 [5, 14] | average effective concentration, ML-2 [1, 18] | average effective concentration, CHRF288-11 [2, 19] | average effective concentration, M07e [3, 20] | average effective concentration, CMK [8] | average effective concentration, U937 [4, 21] | average effective concentration, CMS [6, 22] | average effective concentration, MV4-11 [9] | also measured
C[C@H]1[C@H](OC(=O)CCC(=O)O)O[C@@H]2O[C@@]3(C)CC[C@H]4[C@H](C)CC[C@@H]1[C@@]24OO3 [Artesunate, reference compound] | 4600 nM | 8600 nM | 1200 nM | 1000 nM | 1300 nM | – | – | – | – | – | – | – | EC50 [6, 15]: 5900 nM
O=C(/C=C/c1cccc(S(=O)(=O)Nc2ccccc2)c1)NO [BELINOSTAT] | 350 nM | 240 nM | 190 nM | 170 nM | 270 nM | – | – | – | – | – | – | – | EC50 [7]: > 10000 nM; EC50 [8, 16]: 14 nM; EC50 [6, 17]: 250 nM
C#Cc1cccc(Nc2ncnc3cc(OC)c(OCCCCCCC(=O)NO)cc23)c1 [CUDC-101] | 83 nM | 600 nM | 190 nM | 140 nM | 5600 nM | – | – | – | – | – | – | – | EC50 [7]: > 10000 nM; EC50 [8, 16]: 73 nM; EC50 [6, 17]: 780 nM
COc1ccc(-c2nc(N3CCOCC3)c3sc(CN(C)c4ncc(C(=O)NO)cn4)cc3n2)cn1 [CUDC-907, reference compound] | 1.7 nM | 0.89 nM | 0.7 nM | – | 0.447 nM | – | – | – | – | – | – | – | EC50 ([1]; secondary HTS, 72 h, average of triplicate, read-out: EC50 ML2): 2 nM; EC50 ([2]; secondary HTS, 72 h, average of triplicate, read-out: EC50 CHRF288-11): 1 nM; EC50 ([3]; secondary HTS, 72 h, average of triplicate, read-out: EC50 M07e): 1 nM; EC50 ([8]; 72 h, read-out: EC50 CMK): 2 nM; EC50 [8, 16]: 1.9 nM; EC50 ([4]; secondary HTS, 72 h, average of triplicate, read-out: EC50 U937): 4 nM; EC50 ([5]; secondary HTS, 72 h, average of triplicate, read-out: EC50 MOLM-13): 0.4 nM; EC50 ([6]; 72 h, read-out: EC50 CMS): 1 nM
CC(N[C@H]1C[C@@H]1c1ccccc1)c1ccc2c(c1)OCCO2 (stereo partly shown) [LSD1-C76] | – | – | – | – | – | Inactive | Inactive | Inactive | Inactive | Inactive | Inactive | – | average effective concentration, MOLM-13 [5, 18]: Inactive
Cc1c(-c2cnccn2)ssc1=S [OLTIPRAZ] | 3100 nM | > 10000 nM | > 10000 nM | 5800 nM | > 10000 nM | – | – | – | – | – | – | – | EC50 [6, 15]: 10000 nM
NC(=O)c1cccc2ncc(-c3ccc(Cl)cc3)nc12 [PARP INHIBITOR XII] | – | – | – | – | – | Inactive | Inactive | Inactive | Inactive | Inactive | Inactive | Inactive | –
O=C(CCN1CCN(C(=O)OCc2cc(Cl)cc(Cl)c2)CC1)c1ccc2[nH]c(=O)oc2c1 [PF-8380] | – | – | – | – | – | Inactive | Inactive | Inactive | Inactive | Inactive | Inactive | Inactive | –
CN(C)CC(=O)Nc1ccc2[nH]c(=O)c3ccccc3c2c1 [PJ34] | – | – | – | – | – | Inactive | Inactive | Inactive | Inactive | Inactive | Inactive | Inactive | –
O=C(O)C(Cc1c[nH]c2ccccc12)N1C(=O)c2ccccc2C1=O (stereo not shown) [RG108] | – | – | – | – | – | Inactive | Inactive | Inactive | Inactive | Inactive | Inactive | Inactive | –
SCH 51344 | – | – | – | – | – | Inactive | Inactive | Inactive | Inactive | Inactive | Inactive | – | average effective concentration, MOLM-13 [5, 18]: Inactive
